Laboratory results reported in patent EP0038251A1, “Derivatives of osides, their preparation and their biological applications” (ANVAR Agence Nationale de Valorisation de la Recherche, priority 1980, dated 1981).

Tested on: hémolysines anti-B
Assay: Neutralisation of anti-B haemolysins: inhibition of one agglutinating dose of an anti-B test serum (European Pharmacopoeia techniques)
Type: biochemical
Conditions: dilution 1/5 of a 10 mg/ml solution
Experimental: On utilise une solution à 10 mg/ml du produit de formule XXVI.

## C[C@@H]1O[C@@H](O[C@H]2[C@H](OCCCOCCCN)O[C@H](CO)[C@H](O)[C@@H]2O[C@H]2O[C@H](CO)[C@H](O)[C@H](O)[C@H]2O)[C@@H](O)[C@H](O)[C@@H]1O [trisaccharide XXVI]
  inhibition d'une dose agglutinante d'un sérum-test anti-B: inhibition totale
